Measurements from ChEMBL document CHEMBL5500355, “Quantum chemistry calculation-aided discovery of potent small-molecule mimics of glutathione peroxidases for the treatment of cisplatin-induced hearing loss” (Eur J Med Chem, 2024).
Converted amounts (≈) assume the structure as drawn. The source made the active and inactive calls.

What was measured:
[1] = Glutathione peroxidase like activity of compound assessed as fold increase by measuring reduction in NADPH level at 10 uM by microplate reader assay relative to SPI-1005; assay type: ADME
[2] = Glutathione peroxidase like activity of compound assessed as fold increase by measuring reduction in NADPH level at 100 uM by microplate reader assay relative to SPI-1005; assay type: ADME
[3] = species on record: Mus musculus; test: Inhibition of cisplatin induced hair loss in neonatal C57BL/6 mouse cochlear explants assessed as reduction in cochlear hair cells loss in apex turns pretreated with compound for 2 hrs followed by cisplatin addition and measured after 24 hrs post cisplatin treatment; assay type: functional; details: Cochlea, time 26.0 hrs
[4] = species on record: Mus musculus; test: Inhibition of cisplatin induced hair loss in neonatal C57BL/6 mouse cochlear explants assessed as reduction in cochlear hair cells loss in middle turns pretreated with compound for 2 hrs followed by cisplatin addition and measured after 24 hrs post cisplatin treatment; assay type: functional; details: Cochlea, time 26.0 hrs
[5] = species on record: Mus musculus; test: Inhibition of cisplatin induced hair loss in neonatal C57BL/6 mouse cochlear explants assessed as reduction in cochlear hair cells loss in base turns pretreated with compound for 2 hrs followed by cisplatin addition and measured after 24 hrs post cisplatin treatment; assay type: functional; details: Cochlea, time 26.0 hrs
[6] = Solubility of compound in water by liquid chromatography method; assay type: physicochemical
[7] = test system: 6-10B; test: Effect on cisplatin induced antitumor activity in human 6-10B cells by CCK8 assay; assay type: functional, cell-based
[8] = test system: Mus musculus; test: Prevention of cisplatin induced hair loss in C57BL/6 mouse at 80 mg/kg, po administered daily for one week with simultaneous cisplatin addition on day 3 and 7 and measured after 1 week post last cisplatin treatment by myosin 7a-staining based assay; assay type: functional, organism-based; details: time 2.0 weeks
[9] = species on record: Mus musculus; test: Inhibition of cisplatin induced oxidative stress in neonatal C57BL/6 mouse cochlear explants at 100 uM by MitoSOX Red staining based confocal fluorescence microscope analysis; assay type: functional, organism-based; details: Cochlea
[10] = test system: Tu 686; test: Effect on cisplatin induced antitumor activity in human Tu 686 cells by CCK8 assay; assay type: functional, cell-based
[11] = species on record: Mus musculus; test: Inhibition of cisplatin induced apoptosis in neonatal C57BL/6 mouse cochlear explants assessed as reduction in cleaved caspase 3 positive hair cells in apex turn of cochlea at 100 uM by parvalbumin staining based assay; assay type: functional
[12] = test system: Mus musculus; test: Protection against cisplatin induced oxidative stress in C57BL/6 mouse assessed as reduction in IL-6 level at 80 mg/kg, po administered daily for one week with simultaneous cisplatin addition on day 3 and 7 and measured after 1 week post last cisplatin treatment by ELISA; assay type: functional, organism-based; details: time 2.0 weeks
[13] = test system: Mus musculus; test: Protection against cisplatin induced oxidative stress in C57BL/6 mouse assessed as reduction in MDA level at 80 mg/kg, po administered daily for one week with simultaneous cisplatin addition on day 3 and 7 and measured after 1 week post last cisplatin treatment by ELISA; assay type: functional, organism-based; details: time 2.0 weeks
[14] = species on record: Mus musculus; test: Inhibition of cisplatin induced apoptosis in neonatal C57BL/6 mouse cochlear explants assessed as reduction in cleaved caspase 3 positive hair cells in basal turn of cochlea at 100 uM by parvalbumin staining based assay; assay type: functional
[15] = test system: Mus musculus; test: Prevention of cisplatin induced hearing loss in C57BL/6 mouse assessed as reduction in ABR threshold increase at 80 mg/kg, po administered daily for one week with simultaneous cisplatin addition on day 3 and 7 and measured after 1 week post last cisplatin treatment; assay type: functional, organism-based; details: time 2.0 weeks
[16] = test system: Mus musculus; test: Protection against cisplatin induced oxidative stress in C57BL/6 mouse assessed as reduction in TNF-alpha level at 80 mg/kg, po administered daily for one week with simultaneous cisplatin addition on day 3 and 7 and measured after 1 week post last cisplatin treatment by ELISA; assay type: functional, organism-based; details: time 2.0 weeks
[17] = species on record: Mus musculus; test: Inhibition of cisplatin induced ferroptosis in neonatal C57BL/6 mouse cochlear explants assessed as reduction in mitochondrial iron accumulation at 100 uM by Mito-FerroGreen staining based confocal microscopy analysis; assay type: functional, organism-based; details: Cochlea
[18] = test system: Mus musculus; test: Protection against cisplatin induced oxidative stress in C57BL/6 mouse assessed as increase in SOD level at 80 mg/kg, po administered daily for one week with simultaneous cisplatin addition on day 3 and 7 and measured after 1 week post last cisplatin treatment by ELISA; assay type: functional, organism-based; details: time 2.0 weeks
[19] = test system: HeLa; test: Effect on cisplatin induced antitumor activity in human HeLa cells by CCK8 assay; assay type: functional, cell-based
[20] = species on record: Mus musculus; test: Inhibition of cisplatin induced apoptosis in neonatal C57BL/6 mouse cochlear explants assessed as reduction in cleaved caspase 3 positive hair cells in middle turn of cochlea at 100 uM by parvalbumin staining based assay; assay type: functional

| Structure (SMILES) | fold change (FC) [1] | fold change (FC) [2] | also measured |
| --- | --- | --- | --- |
| O=c1c2cccc(Cl)c2[se]n1-c1ccccc1 | 8.6 | 3.5 | – |
| O=c1c2cccc(Br)c2[se]n1-c1cccnc1 | 9.8 | 3.5 | inhibition [3]: Active; inhibition [4]: Active; inhibition [5]: Active |
| COc1cccc2c(=O)n(-c3ccccc3)[se]c12 | 7.4 | 4.2 | solubility [6]: 2.5 µg/mL (≈ 8.22 µM); inhibition [3]: Active; inhibition [4]: Active; inhibition [5]: Active |
| COc1ccccc1-n1[se]c2ccccc2c1=O | 0.9 | 1.1 | – |
| O=c1c2cc(Br)ccc2[se]n1-c1ccccc1 | 0.5 | 1.1 | – |
| O=c1c2cccc(Br)c2[se]n1-c1ccncc1 | 7.7 | 3.4 | – |
| COc1cccc2[se]n(-c3ccccc3)c(=O)c12 | 1.8 | 1.2 | – |
| COc1cccc(-n2[se]c3ccccc3c2=O)c1 | 0.7 | 1 | – |
| Cc1cccc2c(=O)n(-c3ccccc3)[se]c12 | 4.6 | 2.5 | – |
| O=c1c2cccc(Br)c2[se]n1-c1ccccc1 | 8.8 | 3.5 | inhibition [3]: Active; inhibition [4]: Active; inhibition [5]: Active |
| COc1ccc(-n2[se]c3ccccc3c2=O)cc1 | 1.3 | 1.1 | – |
| O=c1c2ccc(Br)cc2[se]n1-c1ccccc1 | 0.7 | 0.6 | – |
| COc1cccc2c(=O)n(-c3ccccn3)[se]c12 | 6.9 | 3.8 | – |
| COc1cccc2c(=O)n(-c3cccnc3)[se]c12 | 7.7 | 3.5 | Activity [7]: inactive; Activity [8]: Active; inhibition [9]: Active; Activity [10]: inactive; solubility [6]: 1800 µg/mL (≈ 5900 µM); inhibition [11]: Active; Activity [12]: Active; Activity [13]: Active; inhibition [3]: Active; inhibition [14]: Active; Activity [15]: Active; Activity [16]: Active; inhibition [17]: Active; Activity [18]: Active; Activity [19]: inactive; inhibition [4]: Active; inhibition [20]: Active; inhibition [5]: Active |
| COc1ccc2c(=O)n(-c3ccccc3)[se]c2c1 | 0.2 | 0.5 | – |
| O=c1c2cccc([N+](=O)[O-])c2[se]n1-c1ccccc1 | 7.2 | 3.3 | – |
| COc1ccc2[se]n(-c3ccccc3)c(=O)c2c1 | 0.5 | 0.8 | – |
| O=c1c2cccc(Br)c2[se]n1-c1ccccn1 | 9.1 | 4.7 | – |
| O=c1c2ccccc2[se]n1-c1ccccc1 | – | – | Activity [8]: Active; Activity [12]: Active; Activity [13]: Active; inhibition [3]: Active; Activity [15]: Active; Activity [16]: Active; inhibition [17]: Active; Activity [18]: Active; inhibition [4]: Active; inhibition [5]: Active |
| O=c1c2cccc(F)c2[se]n1-c1ccccc1 | 4.5 | 2.5 | – |
| COc1cccc2c(=O)n(-c3ccncc3)[se]c12 | 7.4 | 3 | – |
